Type in all cases: cell-based, murine
For assay [1], the system named is Fas-SSG. In words: Immunoprecipitation of S-glutathionylated Fas (Fas-SSG) after FasL stimulation. To be noted: FasL-stimulated cells, compared to the respective control (muscimol, DMSO, control siRNA). As to the method:
(§1) Exposure of cells to FasL: C10 cells were treated with 150 ng/ml FLAG-FasL (Alexis, San Diego, CA), plus 0.5 micrograms/ml anti-FLAG cross linking antibody, M2 (Sigma, St. Louis, MO). Primary lung fibroblasts and MTECs were treated with 300 ng/ml FasL, plus 1 microgram/ml M2. As reagent controls, cells were treated with M2 alone.
Immunoprecipitation of S-glutathionylated Fas: Immunoprecipitation of S-glutathionylated Fas was performed using established techniques.
C10 lung epithelial cells were stimulated with Flag tagged FasL plus anti-Flag (M2) crosslinking antibody, M2 alone (0), and at the indicated times, lysates were prepared and immunoprecipitated (IP) using an anti-GSH antibody. The subsequent western blot was probed with anti-Fas antibody (top panel). The +DTT control reflects lysates prepared from FasL-stimulated cells at 120 min treated with 25 mM DTT prior to IP with the anti-GSH antibody. Bottom panels: Content of Fas and Grx1 in whole cell lysates (WCL). […] C10 lung epithelial cells were stimulated with FasL plus M2 crosslinking antibody, or M2 alone, and at the indicated times, supernatants were collected. Free GSH was measured. * p<0.05 (ANOVA), compared to M2 controls at the same time points.

The test system of assay [2] is caspase 3. Nature of the assay: Caspase-Glo 3/7 assay after FasL stimulation. Conditions: FasL-stimulated cells, compared to the respective control. As to the method: as §1
(§2) Caspase-Glo assay: Caspase-8 and caspase-3 activities were measured using a Caspase-Glo 8 and Caspase-Glo 3/7 (Promega, Madison, WI) reagents, respectively according to the manufacturer's protocol (Promega, Madison, WI). Results were expressed in Relative Luminescence Units (RLU), after subtraction of background luminescence values. All results were obtained from 3 independent experiments conducted in triplicate.

In assay [3] the test system is caspase 8. Nature of the assay: Caspase-Glo 8 assay after FasL stimulation. Conditions: FasL-stimulated cells, compared to the respective control. As to the method:
as §1, §2

For assay [4], the target named is T1, GSTP (Mus musculus, UniProt P19157).
T1 construct: endogenous in cells; host or cells: murine lung epithelial cells (C10)
In words: GST activity assay (CDNB-GST) in treated cells. To be noted: cells incubated with 50 micromolar for 2 hours, vs 0.2% DMSO, FIG. 5F. As to the method:
GST activity assay: The GST activity was determined using a colorimetric activity assay kit (ab65326, Abcam, Cambridge, MA) based on the GST-catalyzed reaction between GSH and the GST substrate, CDNB (1-chloro-2,4-dinitrobenzene). The GST-catalyzed formation of CDNB-GSH produced a dinitrophenyl thioether which can be detected spectrophotometrically at 340 nm.
(§3) The results are expressed as nmol of CDNB […]/min/mg protein. * p<0.05 (Student t-test) compared to DMSO controls. […] Cells were pre-incubated TLK-199 or DMSO for 2 hours, prior to stimulation with FasL. Lysates were processed as in FIG. 1A. Inhibition of GSTP decreased the activities of caspases 8 (FIG. 5H) and 3 (FIG. 5I) induced by FasL. * p<0.05 ANOVA, compared to DMSO controls. […] Mus: muscimol control. * p<0.05 ANOVA, compared to TNF-alpha+CHX controls.

Assay [5] deals with Fas-SH. In words: Labeling of free sulfhydryls of Fas (Fas-SH) with MPB, oxidative processing. Conditions: FasL-stimulated cells. As to the method:
Microscopy: Cells were fixed in 4% formalin and permeabilizied with 0.2% Triton-X100 in PBS. Permeabilized cells were blocked in PBS containing 2% BSA for 1 hour. Cells were sequentially incubated with primary antibodies (1:500-rabbit anti-ERp57/mouse anti-Fas) and secondary antibodies (1:1000-anti-rabbit-Alexa Fluor 488/anti-mouse Alexa Fluor 647). The nucleus was stained with DAPI (1:4000). Images were acquired using a Zeiss LSM 510 META Confocal Laser Scanning Imaging System. Images were captured at 40× magnification in oil immersion. The image files were converted to Tiff format. Brightness and contrast were adjusted equally in all images. Labeling of free sulfhydryls using biotinylated N-ethyl maleimide (MPB): Cells were lysed in HEPES buffer, pH 7.4 containing 0.5% NP40, with 150 micromolar MPB for 1 hour at ambient temperature. Lysates were centrifuged at 14,000 rpm and passed through a microbiospin (Bio-Rad) column to separate free MPB. The eluent whole cell lysate was immunoprecipitated using an anti-Fas antibody and sequentially probed using streptavidin HRP and anti-Fas antibody.
The transmembrane domain is underlined. ELD; extracellular ligand binding domain, CDD; Cytoplasmic Death Domain. […] C10 lung epithelial cells were treated with FasL. The lysates were labeled with MPB, and IPed using an anti-Fas antibody. […]

The test system of assay [6] is C10 cells. Nature of the assay: Cell viability assay (MTT) after FasL stimulation. Conditions: MTT assay after stimulation with FasL. As to the method: Cell viability assay: C10 cells or primary lung fibroblasts were plated in 12-well dishes. The MTT (3-(4,5-dimethylthiazol-2-yl)-2,5-diphenyltetrazolium bromide) assay was performed using known techniques. Results were obtained from 3 independent experiments conducted in triplicate.
Cells were exposed to FasL, and cell lysates processed as in FIG. 1A. Western blots from WCL were sequentially probed for Fas, ERp57 and GSTP1. […] Cells were treated with FasL, and lysates processed as in FIG. 2B. […] Cells were transfected with ERp57 and GSTP1 siRNA (E+P), and 24 hours later were exposed to FasL+M2 crosslinking antibody (FL), or M2 alone for 30 min. Cell lysates were subjected to IP of the DISC. Western blots were sequentially probed for Fas, FADD, procaspase 8, ERp57 and GSTP1. WCL: assessment of the same proteins in whole cell lysates, as a control.

Assay [7] has as its system ERp57. Nature of the assay: Protein disulfide isomerase (PDI) assay, insulin reduction, lysates of treated cells. As to the method: Protein disulfide isomerase (PDI) assay: 10 micrograms of total cell lysates were incubated with folded insulin, fibril protein binding dye for 1 hr. The fluorescence was then measured in a microplate reader set at a excitation of 500 nm and an emission of 603 nm, per the manufacturer's protocol (Proteostat™ PDI assay kit ENZ-51024-KP002). All results were obtained from 3 independent experiments conducted in triplicate.
Pharmacologic inhibition of ERp57 and GSTP1 decreased Fas-SSG and caspase activation: next, the contribution of the catalytic activities of ERp57 and GSTP in mediating S-glutathionylation of Fas, and subsequent activation of caspases, was asessed.
The results are expressed as relative fluorescence units (RFU). * p<0.05 (Student t-test) compared to muscimol treated cells. […] Cell lysates were processed as in FIG. 1A to determine Fas-SSG (FIGS. 5D and 5E). Inhibition of ERp57 decreased caspase 8, and caspase 3 activities. * p<0.05 ANOVA, compared to muscimol-treated cells.

Assay [8] deals with caspase-3. In words: TNF-alpha plus cycloheximide (CHX) induced caspase-3 activation. Conditions: pre-incubation before TNF-alpha in the presence of cycloheximide, FIG. 5J. As to the method: as §2
In addition to Fas, the extracellular/ligand binding domains of other members of the TNF receptor superfamily also contained cysteines that form intra-molecular disulfide bridges (—S—S—) to create the ligand binding domain. These experiments therefore determined whether ERp57-mediated oxidative processing regulates TNFR-dependent apoptosis. Cells were incubated with the ERp57 inhibitor, thiomuscimol prior to stimulation with TNF-alpha in the presence of cycloheximide (CHX) to induce apoptosis.
as §3

Assay [9] concerns Fas-SSG. Nature of the assay: Cell fractionation and IP of Fas-SSG (ER vs cytosol/pm). To be noted: FasL-stimulated cells, vs DMSO vehicle control, FIG. 3D. Here is the method:
Cell Fractionation: Cell fractionation was carried out using the Calbiochem ProteoExtractTR (Cat. No. 539790) subcellular proteome extraction kit per the manufacturer's protocol.
Proteins from each fraction were subjected to IP using anti-GSH antibody. Western blots were probed for Fas. 25 micrograms of total protein from each fractions were separated on a SDS-PAGE and probed for Fas, ERp57, GSTP1, Prx1 (cytosolic protein), Flotillinl (Flot1, plasma membrane protein), calreticulin (CRT, an ER restricted protein), histone H3 (nuclear marker). […] Cells were treated with FasL, stained with ERp57, Fas, and the nuclear marker, DAPI. Merged images indicate co-localization of Fas and ERp57. […] Proteins from fractions characterized in FIG. 3A were subjected to IP using anti-GSTP1 antibodies, or control IgG. […] Epithelial cells were treated with FasL, in the presence or absence of Brefeldin A. Cells were fractionated as in FIG. 3A, and proteins from each fraction were subjected to IP using anti-GSH antibody. Western blots were probed for Fas. 25 micrograms of total protein from each fraction was separated on a SDS-PAGE and probed for Fas, ERp57, GSTP1, Prx1 (cytosol), Flot1 (plasma membrane), CRT (ER), H3 (nucleus).

SMILES strings stand for the structures.

T1 sequence (P19157 2-210): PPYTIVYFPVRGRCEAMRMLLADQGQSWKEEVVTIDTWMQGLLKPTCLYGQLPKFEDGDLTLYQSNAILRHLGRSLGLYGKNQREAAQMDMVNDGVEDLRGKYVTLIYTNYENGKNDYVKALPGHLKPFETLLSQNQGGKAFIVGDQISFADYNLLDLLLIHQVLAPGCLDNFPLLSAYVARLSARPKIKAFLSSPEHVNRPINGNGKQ

Take `CCOC(=O)[C@@H](N)CCC(=O)N[C@@H](CSCc1ccccc1)C(=O)N[C@@H](C(=O)OCC)c1ccccc1` [TLK199, gamma-glutamyl-S-(benzyl)cysteinyl-R-phenyl glycine diethyl ester]: the “Fas-SSG in response to FasL” value in [1] is given as “diminished”. The “caspase 3 activity in response to FasL” value in [2] is on record as “diminished”. Also, the “caspase 8 activity in response to FasL” value in [3] is “diminished”. Also, in assay [4], the “decrease in GSTP activity” value was determined as 80%.

For the compound `CC(=O)OCOC(=O)CN(CC(=O)OCOC(C)=O)c1ccccc1OCCOc1ccccc1N(CC(=O)OCOC(C)=O)CC(=O)OCOC(C)=O` [BAPTA-AM], the “Fas-SSG in response to FasL” value in [1] was “substantially diminished”. In assay [2], the “caspase 3 activity in response to FasL” value was “decreased”. In assay [3], the “caspase 8 activity in response to FasL” value is reported as “decreased”. In assay [5], the “Fas-SH content (oxidative processing of Fas) after FasL” value is reported as “completely prevented the loss of Fas-SH groups”. For the same compound, the “cell survival / cell death in response to FasL” value in assay [6] is reported as “increased cell survival”.

For the compound `NCc1cc(O)ns1` [thiomuscimol, 5-aminomethyl-3-isothiazolol], in [1], the “Fas-SSG in response to FasL” value is given as “significantly attenuated”. Moreover, in [2], the “caspase 3 activity in response to FasL” value is recorded as “corresponding decreases”. For the same compound, the “caspase 8 activity in response to FasL” value in [3] is “corresponding decreases”. In addition, the “inhibition of ERp57, as measured by RFU” value in assay [7] (FIG. 10, THM vs DMSO, lysates incubated with Bacitracin for 2 hrs as positive control) is on record as “exhibited inhibition of ERp57”. Further, the “decrease in insulin reducing activity” value in assay [7] (epithelial cells incubated with thiomuscimol (10 micromolar), compared to muscimol controls, FIG. 5A) was approximately 50%. Further, in [8], the “TNF-alpha/CHX-mediated activation of caspase-3” value is on record as “significantly decreased”.

In the case of `CC1(C)CC(=O)CC(=O)C1` [dimedone, 5,5-dimethyl-1,3-cyclohexanedione], the “Fas-SSG in response to FasL” value in [1] is “abolished”.

With `NCc1cc(=O)[nH]o1` [muscimol], in assay [8], the “TNF-alpha/CHX-mediated activation of caspase-3” value is reported as “did not affect apoptosis”.

Consider `C[C@H]1CCC/C=C/[C@@H]2C[C@H](O)C[C@H]2[C@H](O)/C=C/C(=O)O1` [Brefeldin A], for which the “movement of Fas-SSG from ER to cytosol/pm” value in assay [9] is on record as “Fas-SSG remained restricted to the ER fraction”.
